Experimental data: paper PMC12426930, “Antioxidant, Hypotensive, and Antidiabetic Breakthroughs: Bromelain Hydrolysis Unlocks Quinoa’s Peptide Potential - In Silico and In Vitro Approach” (Journal of Agricultural and Food Chemistry, 2025)
Values joined by “and” are separate entries in the source; they are usually repeats but may differ in a detail not shown here. Equal values may be shown once. “Also recorded” adds a separate entry of the source. Marks after values point to notes of the source that are not given here. Values belong to the compound of their own block, whether it stands above or below them.

Legend:
[1] = tested on: angiotensin I converting enzyme; assay: ACE-I inhibitory activity (fluorometric kit CS0002); assay type: biochemical
Method: ACE-I inhibitory assay was determined by ACE-I activity assay kit (fluorometric, CS0002). This assay is based on the hydrolysis of angiotensin I by ACE to yield angiotensin II. Briefly, all reagents were diluted in the assay buffer, and a total of 50 μL of peptide sample, positive control (captopril PHR1307), and assay buffer (blank) were added to a 96-well black plate. The standard was added at 0, 0.1, 0.2, 0.3, 0.4, 0.5, 0.6, and 0.8 nmol and adjusted to a final volume of 100 μL. […] Finally, fluorescence (λex, 320 nm; λem, 405 nm) was measured in five cycles for 5 min. Linear regressions were determined to calculate the enzymatic activity for each sample per concentration. Thus, one unit was defined as the amount of enzyme that releases 1 nmol of fluorescent substrate in 1 min at 37 °C. Finally, the inhibition (%) of each peptide and positive control was determined using regression analysis of the corresponding dose–response curves.

ACE-I = settings: pearl garlic peptides; ref Yudho-Sutopo et al. [121]; read-out: ACE-I inhibition IC50; cited from earlier work
From the text: Yudho-Sutopo et al. reported the ACE-I inhibitory activity of four synthetic peptides from pearl garlic (DHSTAVW, KLAKVF, KLSTAASF, and KETPEAHVF). […] According to Yudho-Sutopo et al., the hydrophobic amino acid in the C-terminal and amino acids with a positively charged side-chain amino group, like in DHSTAVW, are determinants in the inhibition of ACE-I. Furthermore, a study by Zheng et al. reported an ACE-I inhibitory peptide – RGQVIYVL – from Chenopo ...

LOX = settings: cited from earlier work; for anti-LOX activity (inhibition): 1 mg/mL, velvet antler blood peptides, ref Ding et al. [119]
From the text: Ding et al. evaluated eight peptides from velvet antler blood (LFP, FPH, EHF, VGYP, FSAL, LSQKFPK, HHGGEFTPV, and LKECCDKPV) for anti-LOX activity. […] Karas et al. reported six LOX-inhibitory peptides from millet grain (RLARAGLAQ, YGNPVGGVGH, EQGFLPGP ...

[2] = Trolox equivalent antioxidant capacity (TEAC, ABTS radical cation); settings: 734 nm, 6 min, mean ± SD, n = 9
Method: The Trolox equivalent antioxidant capacity (TEAC) analysis was performed as described by Sanchez-Velazquez et al. In order to produce ABTS (2,2’-azino-bis(3-ethylbenzthiazoline-6-sulfonic acid) radical cation (ABTS^ ●+ ), ABTS (7 mM) were mixed with potassium persulfate (2.45 mM) in the dark at room temperature (RT 18–21 °C) for 16 h. […] Finally, the reaction was measured at 0 and 6 min at 734 nm (SPARK-10M, TECAN, Switzerland). The percentage of inhibition was calculated as follows: %TEACinhibition=Abs sample0min−Abs sample6min/Abs sample0min−(Abs blank0min−Abs blank6min/Abs blank0min)×100

[3] = tested on: porcine pancreatic α-amylase (PPA); assay: α-Amylase inhibition; assay type: biochemical; settings: CNPG3 substrate, 405 nm, 37 °C, mean ± SD, n = 9
Method: α-Amylase inhibition activity was performed using the 3,5-dinitrosalicylic acid (DNS) assay according to Zulfiqar et al. […] Then, 50 μL of substrate (2-chloro-4-nitro-[…] (CNPG3) (2 mM)) was added per well. Finally, absorbance was recorded at 405 nm (SPARK-10M, TECAN, Switzerland) at 37 °C for 10 min in 1-min intervals. The percentage of enzyme inhibition was calculated in relation to 100% enzymatic activity in the negative control (phosphate-buffered saline (PBS) buffer, enzyme, and substrate).

[4] = tested on: 15-LOX enzyme (soybean lipoxygenase); assay: Lipoxygenase inhibitor screening assay (LOX); assay type: biochemical; settings: 31.25 μM; linoleic acid 1 mM, RT, 490 nm
Method: Lipoxygenase inhibitory activity assay (LOX) was determined following the manufacturer’s instructions (#760700). Thus, peptide concentrations (31.25–125 μM) were prepared with the assay buffer and tested in triplicate. First, 10 μL of the peptides at each concentration was mixed with 90 μL of 15-LOX enzyme (soybean lipoxygenase) in a 96-well plate. Then, three wells each contained assay buffer as blank (without enzyme), assay buffer as vehicle (with enzyme), and 15-LOX as positive control. Afterward, 10 μL of linoleic acid (1 mM) (substrate) was added to all wells and shaken for 10 min at RT. Finally, 100 μL of chromogen was added to all wells, and the plate was sealed and shaken for an additional 5 min at RT. The final reaction was measured at 490 nm, and the percentage of inhibition was calculated as. %inhibition=[1−Correctedvaluesofpeptide/Correctedvaluesofvehicle]×100

[5] = Oxygen radical absorbance capacity (ORAC) assay; settings: AAPH, fluorescein, 37 °C, 150 min
Method: Oxygen radical absorbance capacity (ORAC) assay was performed following the method of Carvalho-Oliveira et al. Briefly, 30 μL of peptide (different concentrations 50–1000 μM) or standard (Trolox at 0–160 μM) were placed in a black 96-well plate. The reaction mixture comprised 180 μL of fluorescein (116.9 nM) and 90 μL of 2,2’-azobis(2-amidinopropane) dihydrochloride (AAPH) (40 mM). Finally, the fluorescence was recorded every 2 min for 150 min at excitation and emission wavelengths of 485 and 520 nm, respectively. All reactions were performed at 37 °C. The results were expressed as μmol Trolox equivalent (TE)/μmol of peptide. Quantification and interpretation of the data were done by Gen5 software, version 1.1 (BioTek Instruments, Winooski, VT, USA).

human DPP-IV = assay: DPP-IV inhibitory activity; assay type: biochemical; settings: H-Gly-Pro-pNA, 37 °C, mean ± SD, n = 9
Method: Dipeptidyl peptidase-IV (DPP-IV) inhibitory activity was measured following the method by Vilcacundo et al., with slightly modifications. […] For the negative control 70 μL of Tris Buffer was added. Finally, 100 μL of substrate (H-Gly-Pro-pNA, 100 mM) was added to all wells. The reaction was performed at 37 °C in the microplate reader (BioTek Instruments, Winooski, VT, USA), and the reaction was read at 405 nm for 30 min, with reading intervals of 2 min. Finally, data were plotted and fitted to a logarithmic regression to obtain dose–response curves.

[6] = tested on: rat intestinal acetone α-glucosidase; assay: α-Glucosidase inhibition; assay type: biochemical; settings: 2 mM maltose, pH 6.9, 37 °C, mean ± SD, n = 9
Method: α-Glucosidase inhibition assay was measured following the method of Vilcacundo et al., with slightly modifications. First, 100 μL of sample ([…]), positive control (1 mM acarbose), and/or negative control (Milli-Q-water), were added to 50 μL of rat intestinal acetone α-glucosidase (1 U/mL in 0.1 M, maleate buffer pH 6.9), and the mixture was incubated at 37 °C for 5 min. Then, 50 μL of substrate (2 mM maltose) was added into each tube, which was performed in a Thermomixer (37 °C, 1000 rpm, for 30 min). Finally, the reaction was stopped at 100 °C for 5 min. The glucose concentration in the reaction was measured using GOPOD (glucose oxidase/peroxidase) from Megazyme, with absorbance measured at 560 nm (Gen5 software, version 1.1, BioTek Instruments, Winooski, VT, USA). The percentage of inhibition was calculated relative to the non-inhibited control (negative control).

Fe^2+ chelation assay = settings: 125 μM; ferrozine, pH 4.9, 37 °C, 10 min; mean ± SD, n = 9
Method: Fe^2+ chelation assay was measured according to Sanchez-Velazquez et al. with slightly modifications. 25 μL of sample (synthetic peptides, […]) or positive control (EDTA, 0.1 μg/μL) was added to 225 μL of buffer (sodium acetate, 100 mM, pH 4.9), then 15 μL of iron solution (0.1%, w/v) and 9 μL of ferrozine (40 mM) were added to start the reaction. For the blank well, 250 μL of buffer was added to the iron solution and ferrozine. The reaction was incubated 10 min at 37 °C and then read at 562 nm (SPARK-10M, TECAN, Switzerland). Fe^2+ chelating activity was calculated as described previously for copper.

[7] = 125 μM, fluorometric kit, 37 °C, mean ± SD, n = 9
[8] = 250 μM, fluorometric kit, 37 °C, mean ± SD, n = 9
[9] = 500 μM, fluorometric kit, 37 °C, mean ± SD, n = 9

- ACE-I inhibition, reference inhibitor ([1]; 50 µM): 80.1%
Compound: C[C@H](CS)C(=O)N1CCC[C@H]1C(=O)O [commercial ACE-I inhibitor, reference compound]

Compound: DHSTAVW [synthetic peptide from pearl garlic, Yudho-Sutopo et al]
- IC50 (ACE-I): 2.8 µM

Compound: GQLGEHGGAGMG
- LOX inhibition (LOX; millet grain peptides, ref Karas et al. [120]): 50%

Compound: HHGGEFTPV [peptide from velvet antler blood, Ding et al]
- anti-LOX activity (inhibition) (LOX): ≤ 12%

Compound: KETPEAHVF [synthetic peptide from pearl garlic, Yudho-Sutopo et al]
- IC50 (ACE-I): 455 µM

Compound: KLAKVF [synthetic peptide from pearl garlic, Yudho-Sutopo et al]
- IC50 (ACE-I): 77.2 µM

Compound: KLSTAASF [synthetic peptide from pearl garlic, Yudho-Sutopo et al]
- IC50 (ACE-I): 172 µM

Compound: LKECCDKPV [peptide from velvet antler blood, Ding et al]
- anti-LOX activity (inhibition) (LOX): ≤ 12%

Compound: LSQKFPK [peptide from velvet antler blood, Ding et al]
- anti-LOX activity (inhibition) (LOX): ≤ 12%

- LOX inhibition [4]: 16.20%
- ACE-I inhibition [1, 7]: 17.20 ± 0.28^d %
- ACE-I inhibition [1, 8]: 31.7 ± 2.40^b %
- ACE-I inhibition [1, 9]: 53.0 ± 1.41^a %
- α-glucosidase inhibition ([6]; 300 μM): 7.72 ± 0.95^c %
- inhibition ([6]; 400 μM): 10.4 ± 0.93%
- α-glucosidase inhibition ([6]; 500 μM): 11.93 ± 0.92^b %
Compound: NIYQIS [quinoa 11S globulin peptide, custom-synthesized by GenScript, purity 95%]
- TEAC inhibition (ABTS^●+ inhibition) ([2]; 125 μM): 7.87 ± 0.10%
- TEAC inhibition (ABTS^●+ inhibition) ([2]; 250 μM): 7.39 ± 0.19%
- TEAC inhibition (ABTS^●+ inhibition) ([2]; 500 μM): 8.19 ± 0.38%
- α-amylase inhibition ([3]; 300 μM): ND (no inhibitory effect was observed at the given concentration)
- α-amylase inhibition ([3]; 400 μM): ND (no inhibitory effect was observed at the given concentration)
- α-amylase inhibition ([3]; 500 μM): did not show significant α-amylase inhibition; also recorded: ND (no inhibitory effect was observed at the given concentration)
- ORAC [5]: 0.75 μmol TE/μmol peptide
- ORAC ([5]; mean ± SD, n = 9): 0.75 μM TE/μM Peptide and 0.75 ± 0.02^a μM TE/μM Peptide
- DPP-IV inhibition (human DPP-IV; 125 μM): ND (no inhibitory effect was observed at the given concentration)
- DPP-IV inhibition (human DPP-IV; 250 μM): 12.22 ± 0.50^b %
- DPP-IV inhibition (human DPP-IV; 500 μM): 16.36 ± 0.70^a %
- Fe^2+ chelating activity (Fe^2+ chelation assay): 9.04 ± 0.96%

Compound: VGYP [peptide from velvet antler blood, Ding et al]
- anti-LOX activity (inhibition) (LOX): ≤ 12%

- α-amylase inhibition ([3]; 300 μM): 12.20 ± 1.67^c %
- α-amylase inhibition ([3]; 400 μM): 11.43 ± 2.04^c %
- α-amylase inhibition ([3]; 500 μM): 6.66 ± 0.38^d %
- LOX inhibition [4]: 22.64%
- inhibition [1, 7]: 21.1 ± 0.19%
- ACE-I inhibition [1, 8]: 24.1 ± 0.18^c %
- ACE-I inhibition [1, 9]: 24.3 ± 0.15^c %
- α-glucosidase inhibition ([6]; 300 μM): 8.48 ± 0.94^c %
- α-glucosidase inhibition ([6]; 400 μM): 8.33 ± 0.94^c %
- α-glucosidase inhibition ([6]; 500 μM): 14.86 ± 0.89^a %
Compound: YDDER [quinoa 11S globulin peptide, custom-synthesized by GenScript, purity 95%]
- TEAC inhibition (ABTS^●+ inhibition) ([2]; 250 μM): 7.45 ± 0.19%
- TEAC inhibition (ABTS^●+ inhibition) ([2]; 500 μM): 8.7 ± 0.50%
- ORAC [5]: 0.24 μmol TE/μmol peptide
- ORAC ([5]; mean ± SD, n = 9): 0.24 ± 0.01^b μM TE/μM Peptide
- DPP-IV inhibition (human DPP-IV; 125 μM): ND (no inhibitory effect was observed at the given concentration)
- DPP-IV inhibition (human DPP-IV; 250 μM): ND (no inhibitory effect was observed at the given concentration)
- DPP-IV inhibition (human DPP-IV; 500 μM): 3.44 ± 0.50^d %
- Fe^2+ chelating activity (Fe^2+ chelation assay): 8.8 ± 1.0%
